Like-named read-outs stand apart in the source and are kept apart here.
Tests used:
[1] = molecular target: PfCRT^Ecu1110 (Plasmodium falciparum, UniProt Q9N623, A220S/I356L/K76T/N326D); test: [3H]CQ uptake into Xenopus oocytes, cis-inhibition by unlabelled solute; format: cell-based; conditions: for PfCRT-mediated [3H]CQ transport, cis-inhibition (% PfCRTEcu1110 control): PfCRTEcu1110 oocytes, background [3H]CQ accumulation subtracted, normalised to oocyte type control; for [3H]CQ transport (% PfCRTEcu1110 control), cis-inhibition, PfCRTEcu1110: PfCRT-mediated component (background subtracted), sheet title says normalised to PfCRTDd2 control; for [3H]CQ transport (% PfCRTEcu1110 control), cis-inhibition, PfCRTEcu1110 / Uptake of [3H]CQ (% PfCRTDd2 control), cis-inhibition, PfCRTEcu1110: mean ± SEM, SEM; for Uptake of [3H]CQ (% PfCRTDd2 control), cis-inhibition, PfCRTEcu1110: total [3H]CQ transport
Chain of PfCRT^Ecu1110 (Q9N623 whole entry A220S/I356L/K76T/N326D): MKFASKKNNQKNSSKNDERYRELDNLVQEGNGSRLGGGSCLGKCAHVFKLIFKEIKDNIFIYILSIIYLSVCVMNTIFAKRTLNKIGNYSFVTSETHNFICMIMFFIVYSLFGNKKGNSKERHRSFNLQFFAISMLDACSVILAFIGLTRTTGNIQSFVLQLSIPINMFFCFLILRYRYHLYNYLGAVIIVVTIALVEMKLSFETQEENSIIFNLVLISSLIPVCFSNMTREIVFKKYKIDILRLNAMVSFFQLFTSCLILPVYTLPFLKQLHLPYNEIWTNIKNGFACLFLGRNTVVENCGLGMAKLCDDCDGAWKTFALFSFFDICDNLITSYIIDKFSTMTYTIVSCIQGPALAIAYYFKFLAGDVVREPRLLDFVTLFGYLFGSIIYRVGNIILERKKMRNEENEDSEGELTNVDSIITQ
Outline: (§1)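 Inward transport into oocyte cytosol from pH 5.5 medium models PfCRT efflux from the acidic digestive vacuole. Incubation 1.5 h, 27.5 °C; termination by ice-cold washes; lysate radioactivity counted.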

[2] = molecular target: PfCRT^Dd2 (Plasmodium falciparum, UniProt Q9N623, A220S/I356T/K76T/M74I/N326S/N75E/Q271E/R371I); test: as above; format: cell-based; conditions: for Uptake of [3H]CQ (% PfCRTDd2 control), cis-inhibition / PfCRT-mediated [3H]CQ transport, cis-inhibition (% PfCRTDd2 control): PfCRTDd2 oocytes; for Uptake of [3H]CQ (% PfCRTDd2 control), cis-inhibition / Uptake of [3H]CQ (% PfCRTDd2 control), cis-inhibition, PfCRTDd2: total [3H]CQ transport; for Uptake of [3H]CQ (% PfCRTDd2 control), cis-inhibition: normalised to the oocyte type control; for PfCRT-mediated [3H]CQ transport, cis-inhibition (% PfCRTDd2 control): background [3H]CQ accumulation subtracted, normalised to oocyte type control; for Uptake of [3H]CQ (% PfCRTDd2 control), cis-inhibition, PfCRTDd2: mean ± SEM, SEM
Chain of PfCRT^Dd2 (Q9N623 whole entry A220S/I356T/K76T/M74I/N326S/N75E/Q271E/R371I): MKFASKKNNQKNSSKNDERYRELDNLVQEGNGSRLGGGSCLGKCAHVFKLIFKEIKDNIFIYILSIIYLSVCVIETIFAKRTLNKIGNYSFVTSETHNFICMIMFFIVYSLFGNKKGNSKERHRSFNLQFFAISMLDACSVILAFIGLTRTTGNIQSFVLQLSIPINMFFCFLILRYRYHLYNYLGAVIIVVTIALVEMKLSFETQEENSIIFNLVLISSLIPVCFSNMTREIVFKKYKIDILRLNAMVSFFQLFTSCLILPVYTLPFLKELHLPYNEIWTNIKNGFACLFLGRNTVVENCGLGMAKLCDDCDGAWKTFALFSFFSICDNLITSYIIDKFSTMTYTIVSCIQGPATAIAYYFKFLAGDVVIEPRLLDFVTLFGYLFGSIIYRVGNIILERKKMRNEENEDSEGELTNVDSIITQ
Outline: as §1

[3] = tested on: non-expressing oocytes; format: cell-based, Xenopus laevis; conditions: total [3H]CQ transport; for Uptake of [3H]CQ (% non-expressing oocyte control), trans-stimulation: non-expressing oocytes, normalised to the oocyte type control; for Uptake of [3H]CQ (% PfCRTDd2 control), trans-stimulation, non-expressing oocytes: mean ± SEM, SEM
Outline: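 Oocytes (ten per treatment, ≥4 independent frogs/days) were preloaded by injecting VF-6 in 25 nL ND96 at pH 5.0, 5.5, 6.0 or 7.0, or Na^+-free choline buffer, then uptake run 1.5 h, 27.5 °C, ND96 pH 5.5 by default. Internal concentrations assumed ~400 nL oocyte volume.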

[4] = tested on: non-expressing oocytes; test: cells; format: cell-based, Xenopus laevis; conditions: total [3H]CQ transport; for Uptake of [3H]CQ (% non-expressing oocyte control), cis-inhibition: non-expressing oocytes, normalised to the oocyte type control; for Uptake of [3H]CQ (% PfCRTDd2 control), cis-inhibition, non-expressing oocytes: mean ± SEM, SEM
Outline: as §1

[5] = tested on: PfCRT; test: Influx of VF-6 via PfCRT into the oocyte, solutes tested as potential co-substrates; format: cell-based, Plasmodium falciparum; design: key: X: Compounds that have been tested as potential co-substrates but are not required for influx of VF-6 via PfCRT into the oocyte; conditions: X marks the solute
[6] = molecular target: PfCRT^3D7 (Plasmodium falciparum, UniProt Q8IBZ9); test: cell-based; format: cell-based; conditions: total [3H]CQ transport; for Uptake of [3H]CQ (% PfCRT3D7 control), cis-inhibition: PfCRT3D7 oocytes, normalised to the oocyte type control; for Uptake of [3H]CQ (% PfCRTDd2 control), cis-inhibition, PfCRT3D7: mean ± SEM, SEM
Chain of PfCRT^3D7 (Q8IBZ9 59-398): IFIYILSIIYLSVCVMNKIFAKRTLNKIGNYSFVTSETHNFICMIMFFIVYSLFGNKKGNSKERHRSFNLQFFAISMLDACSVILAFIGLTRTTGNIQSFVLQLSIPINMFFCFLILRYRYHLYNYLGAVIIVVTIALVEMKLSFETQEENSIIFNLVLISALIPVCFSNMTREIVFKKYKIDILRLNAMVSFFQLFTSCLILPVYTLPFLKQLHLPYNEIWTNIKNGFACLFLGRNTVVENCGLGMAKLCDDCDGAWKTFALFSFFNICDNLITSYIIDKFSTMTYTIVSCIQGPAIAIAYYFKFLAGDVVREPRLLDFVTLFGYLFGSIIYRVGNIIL
Outline: as §1

NC(=O)C[C@H](N)C(=O)O [L-asparagine]
PfCRT-mediated [3H]CQ transport, cis-inhibition (% PfCRTEcu1110 control) ([1]; [test solute] = 1 mM): 84 ± 4.9 % PfCRTEcu1110 control | PfCRT-mediated [3H]CQ transport, cis-inhibition (% PfCRTEcu1110 control) ([1]; [test solute] = 2 mM): 100 ± 5.1 % PfCRTEcu1110 control | [3H]CQ transport (% PfCRTEcu1110 control), cis-inhibition, PfCRTEcu1110 ([1]; [test solute] = 1 mM): 25 ± 0.6 % PfCRTEcu1110 control | [3H]CQ transport (% PfCRTEcu1110 control), cis-inhibition, PfCRTEcu1110 ([1]; [test solute] = 2 mM): 30 ± 0.2 % PfCRTEcu1110 control | Uptake of [3H]CQ (% PfCRTDd2 control), cis-inhibition, PfCRTEcu1110 ([1]; [test solute] = 0.5 mM): 31 ± 1.5 % PfCRTDd2 control | Uptake of [3H]CQ (% PfCRTDd2 control), cis-inhibition, PfCRTEcu1110 ([1]; [test solute] = 1 mM): 28 ± 1.8 % PfCRTDd2 control | Uptake of [3H]CQ (% PfCRTDd2 control), cis-inhibition, PfCRTEcu1110 ([1]; [test solute] = 2 mM): 33 ± 2.2 % PfCRTDd2 control | Uptake of [3H]CQ (% PfCRTDd2 control), cis-inhibition ([2]; [test solute] = 0.5 mM): 100 ± 5.3 % PfCRTDd2 control | Uptake of [3H]CQ (% PfCRTDd2 control), cis-inhibition ([2]; [test solute] = 2 mM): 100 ± 8.5 % PfCRTDd2 control | PfCRT-mediated [3H]CQ transport, cis-inhibition (% PfCRTDd2 control) ([2]; [test solute] = 0.5 mM): 98 ± 4.1 % PfCRTDd2 control | PfCRT-mediated [3H]CQ transport, cis-inhibition (% PfCRTDd2 control) ([2]; [test solute] = 1 mM): 99 ± 6.2 % PfCRTDd2 control | PfCRT-mediated [3H]CQ transport, cis-inhibition (% PfCRTDd2 control) ([2]; [test solute] = 2 mM): 95 ± 3.5 % PfCRTDd2 control | Uptake of [3H]CQ (% PfCRTDd2 control), cis-inhibition, PfCRTDd2 ([2]; [test solute] = 0.5 mM): 100 ± 5.3 % PfCRTDd2 control | Uptake of [3H]CQ (% PfCRTDd2 control), cis-inhibition, PfCRTDd2 ([2]; [test solute] = 1 mM): 101 ± 8.1 % PfCRTDd2 control | Uptake of [3H]CQ (% PfCRTDd2 control), cis-inhibition, PfCRTDd2 ([2]; [test solute] = 2 mM): 100 ± 8.5 % PfCRTDd2 control | Uptake of [3H]CQ (% non-expressing oocyte control), trans-stimulation ([3]; [test solute]i = 5 mM): 100 ± 3.7 % non-expressing oocyte control | Uptake of [3H]CQ (% non-expressing oocyte control), trans-stimulation ([3]; [test solute]i = 45 mM (30 mM for some solutes due to solubility)): 99 ± 3.0 % non-expressing oocyte control | Uptake of [3H]CQ (% PfCRTDd2 control), trans-stimulation, non-expressing oocytes ([3]; [test solute]i = 5 mM (intracellular)): 3.2 ± 0.02 % PfCRTDd2 control | Uptake of [3H]CQ (% PfCRTDd2 control), trans-stimulation, non-expressing oocytes ([3]; [test solute]i = 45 mM (intracellular; 30 mM for some solutes due to solubility)): 2.4 ± 0.02 % PfCRTDd2 control | Uptake of [3H]CQ (% non-expressing oocyte control), cis-inhibition ([4]; [test solute] = 0.5 mM): 100 ± 5.6 % non-expressing oocyte control | Uptake of [3H]CQ (% non-expressing oocyte control), cis-inhibition ([4]; [test solute] = 1 mM): 98 ± 5.3 % non-expressing oocyte control | Uptake of [3H]CQ (% non-expressing oocyte control), cis-inhibition ([4]; [test solute] = 2 mM): 100 ± 4.6 % non-expressing oocyte control | Uptake of [3H]CQ (% PfCRTDd2 control), cis-inhibition, non-expressing oocytes ([4]; [test solute] = 0.5 mM): 3.9 ± 0.02 % PfCRTDd2 control | Uptake of [3H]CQ (% PfCRTDd2 control), cis-inhibition, non-expressing oocytes ([4]; [test solute] = 1 mM): 2.8 ± 0.04 % PfCRTDd2 control | Uptake of [3H]CQ (% PfCRTDd2 control), cis-inhibition, non-expressing oocytes ([4]; [test solute] = 2 mM): 2.5 ± 0.05 % PfCRTDd2 control | Compounds that have been tested as potential co-substrates but are not required for influx of VF-6 via PfCRT into the oocyte [5]: X | Uptake of [3H]CQ (% PfCRT3D7 control), cis-inhibition ([6]; [test solute] = 0.5 mM): 98 ± 2.4 % PfCRT3D7 control | Uptake of [3H]CQ (% PfCRT3D7 control), cis-inhibition ([6]; [test solute] = 1 mM): 98 ± 3.5 % PfCRT3D7 control | Uptake of [3H]CQ (% PfCRT3D7 control), cis-inhibition ([6]; [test solute] = 2 mM): 101 ± 4.7 % PfCRT3D7 control | Uptake of [3H]CQ (% PfCRTDd2 control), cis-inhibition, PfCRT3D7 ([6]; [test solute] = 0.5 mM): 2.6 ± 0.04 % PfCRTDd2 control | Uptake of [3H]CQ (% PfCRTDd2 control), cis-inhibition, PfCRT3D7 ([6]; [test solute] = 1 mM): 2.2 ± 0.03 % PfCRTDd2 control | Uptake of [3H]CQ (% PfCRTDd2 control), cis-inhibition, PfCRT3D7 ([6]; [test solute] = 2 mM): 3.4 ± 0.07 % PfCRTDd2 control

Source: article PMC7413254 (Nature Communications, 2020)
